This passage reports inhibition results from US8173689B2 (Novartis AG, priority 2006, dated 2012).

Where two headings read alike, the source gives them in different places.

For one assay, the target named is T1, kinase domain of PDGFRβ (Homo sapiens, UniProt P09619).
T1 construct: The kinase domain of PDGFRβ was assayed in 50 mM Hepes; purchased Invitrogen P3082
Kind of assay: Inhibition of PDGFRb kinase signaling in an in vitro biochemical assay (alphascreen). Conditions: tested at about 1 μM, read-out: PDGFRβ percent inhibition.

In the next assay the target is T2, kinase domain of cKIT (Homo sapiens, UniProt P10721).
T2 construct: The kinase domain of cKIT was assayed in 50 mM Hepes; purchased Upstate 14-559
Kind of assay: Inhibition of cKIT kinase signaling in an in vitro biochemical assay (alphascreen). The following applies: tested at about 1 μM, read-out: cKit percent inhibition.

Assay [1] concerns the target T3, cytoplasmic domain of the human CSF-1R (Homo sapiens, UniProt P07333).
T3 construct: Recombinant protein corresponding to the cytoplasmic domain of the human CSF-1R; purchased Invitrogen Corporation, Carlsbad, Calif; PV3249
T3 sequence (P07333 539-972 limits assumed): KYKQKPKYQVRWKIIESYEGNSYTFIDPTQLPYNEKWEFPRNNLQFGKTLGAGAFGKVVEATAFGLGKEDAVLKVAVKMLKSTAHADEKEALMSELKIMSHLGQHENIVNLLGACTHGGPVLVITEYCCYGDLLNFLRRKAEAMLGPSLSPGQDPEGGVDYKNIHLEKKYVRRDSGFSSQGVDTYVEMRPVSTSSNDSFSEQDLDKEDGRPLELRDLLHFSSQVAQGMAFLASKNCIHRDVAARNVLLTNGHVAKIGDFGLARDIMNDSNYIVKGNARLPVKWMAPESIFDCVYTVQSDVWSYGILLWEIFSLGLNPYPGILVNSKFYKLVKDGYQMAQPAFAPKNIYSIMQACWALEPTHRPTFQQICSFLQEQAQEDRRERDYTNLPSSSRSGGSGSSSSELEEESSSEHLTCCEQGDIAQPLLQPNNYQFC
The assay is described as follows: In vitro kinase assay for colony stimulating factor-1 receptor (AlphaScreen). In kind it is biochemical. Conditions: tested at about 1 μM, read-out: CSF-1R percent inhibition. The method in brief: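 Test compounds, serially diluted threefold starting at 25 μM, were mixed with Hepes buffer (pH 7.5, Mg2+/Mn2+, DTT, BSA, Tween 80) containing 1 μM ATP. Recombinant kinase was present at 4 nM. After stopping, beads were added and plates were read the next day by AlphaScreen.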

T1 sequence (P09619 600-962 limits assumed): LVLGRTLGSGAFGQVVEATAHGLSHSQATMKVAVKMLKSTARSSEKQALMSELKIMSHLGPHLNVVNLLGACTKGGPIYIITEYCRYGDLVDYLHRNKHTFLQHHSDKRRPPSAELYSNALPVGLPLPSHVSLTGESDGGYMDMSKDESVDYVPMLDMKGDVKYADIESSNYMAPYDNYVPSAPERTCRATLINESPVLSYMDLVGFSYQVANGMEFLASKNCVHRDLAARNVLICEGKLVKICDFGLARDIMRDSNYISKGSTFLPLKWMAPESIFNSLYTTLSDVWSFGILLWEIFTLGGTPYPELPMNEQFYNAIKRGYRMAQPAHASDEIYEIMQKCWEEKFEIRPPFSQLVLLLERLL
T2 sequence (P10721 589-937 limits assumed): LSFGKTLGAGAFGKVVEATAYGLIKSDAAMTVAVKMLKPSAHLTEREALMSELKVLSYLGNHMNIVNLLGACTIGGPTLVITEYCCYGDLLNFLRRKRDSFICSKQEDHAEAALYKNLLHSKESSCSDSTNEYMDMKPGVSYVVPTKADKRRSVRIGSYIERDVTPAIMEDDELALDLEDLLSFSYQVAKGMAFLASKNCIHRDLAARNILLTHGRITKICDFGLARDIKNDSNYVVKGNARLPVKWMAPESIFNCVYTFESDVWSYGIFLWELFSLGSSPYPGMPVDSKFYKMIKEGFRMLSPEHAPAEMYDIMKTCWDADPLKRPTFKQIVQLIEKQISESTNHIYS

Consider `O[C@@H]1CCCC[C@H]1Nc1nc2ccc(Oc3ccnc(C4=CCNCC4)c3)cc2s1` [Compound 161], for which the inhibition at 1 µM on kinase domain of PDGFRβ (compounds of Table 3) is 26%; on kinase domain of cKIT (compounds of Table 3), 20%; in assay [1] (compounds of Table 3), 54%.

Take `Cn1nccc1-c1cnccc1Oc1ccc2nc(N[C@@H]3CCCC[C@H]3O)sc2c1` [Example 191]: the inhibition at 1 µM at kinase domain of PDGFRβ (compounds of Table 3) worked out at 15%; on kinase domain of cKIT (compounds of Table 3), 19%; in assay [1] (compounds of Table 3), 45%.

For the molecule `O[C@@H]1CCCC[C@H]1Nc1nc2ccc(Oc3ccnc(Cl)c3)cc2s1` [Example 225, (1R,2R)-2-(6-(2-chloropyridin-4-yloxy)benzo[d]thiazol-2-ylamino)cyclohexanol], the inhibition at 1 µM worked out at 0% at kinase domain of PDGFRβ (compounds of Table 3), 21% at kinase domain of cKIT (compounds of Table 3) and 90% in assay [1] (compounds of Table 3).

As for `N#Cc1cc(Oc2ccc3nc(N[C@@H]4CCCC[C@H]4O)sc3c2)ccn1` [Example 226, 4-(2-((1R,2R)-2-hydroxycyclohexylamino)benzo[d]thiazol-6-yloxy)picolinonitrile], the results for the inhibition at 1 µM (on kinase domain of PDGFRβ (compounds of Table 3); on kinase domain of cKIT (compounds of Table 3); in assay [1] (compounds of Table 3)) were 0%, 20% and 80%, respectively.

For `CNC(=O)c1cnccc1Oc1ccc2nc(N[C@@H]3CCCC[C@H]3O)sc2c1` [Example 291, 4-(2-((1R,2R)-2-hydroxycyclohexylamino)benzo[d]thiazol-6-yloxy)-N-methylnicotinamide], the inhibition at 1 µM on kinase domain of PDGFRβ (compounds of Table 3) was determined as 0%; at kinase domain of cKIT (compounds of Table 3) it was 4%; in assay [1] (compounds of Table 3), 48%.

Turning to `CNC(=O)c1cc(Oc2ccc3nc(N[C@H]4CCCC[C@H]4N)sc3c2)ccn1` [Example 292, 4-(2-((1S,2R)-2-aminocyclohexylamino)benzo[d]thiazol-6-yloxy)-N-methylpicolinamide], the figures for the inhibition at 1 µM (on kinase domain of PDGFRβ (compounds of Table 3); at kinase domain of cKIT (compounds of Table 3); in assay [1] (compounds of Table 3)) were 0%, 3% and 95%, respectively.

Regarding `CNC(=O)c1cc(Oc2ccc3nc(NC4CCCC(N)C4)sc3c2)ccn1` (stereo not drawn) [Example 294, 4-(2-(3-aminocyclohexylamino)benzo[d]thiazol-6-yloxy)-N-methylpicolinamide], the inhibition at 1 µM at kinase domain of PDGFRβ (compounds of Table 3) stood at 0%; at kinase domain of cKIT (compounds of Table 3), 1%; in assay [1] (compounds of Table 3), 87%.

Take `CNC(=O)c1cc(Oc2ccc3nc(N[C@H]4CCCC[C@H]4NC(C)=O)sc3c2)ccn1` [Example 295, 4-(2-((1S,2R)-2-acetamidocyclohexylamino)benzo[d]thiazol-6-yloxy)-N-methylpicolinamide]: the results for the inhibition at 1 µM (at kinase domain of PDGFRβ (compounds of Table 3); at kinase domain of cKIT (compounds of Table 3); in assay [1] (compounds of Table 3)) were 0%, 5% and 85%, respectively.

Turning to `CNC(=O)c1cc(Oc2ccc3nc(NC4CCCC(NC(C)=O)C4)sc3c2)ccn1` (stereo not drawn) [Example 296, 4-(2-(3-acetamidocyclohexylamino)benzo[d]thiazol-6-yloxy)-N-methylpicolinamide], the inhibition at 1 µM on kinase domain of PDGFRβ (compounds of Table 3) turned out to be 9%; at kinase domain of cKIT (compounds of Table 3), 1%; in assay [1] (compounds of Table 3), 97%.

Consider `CNC(=O)c1cc(Oc2ccc3nc(N[C@H]4CCCC[C@H]4NC(=O)NC(C)C)sc3c2)ccn1` [Example 301, 4-(2-((1S,2R)-2-(3-isopropylureido)cyclohexyl-amino)benzo[d]thiazol-6-yloxy)-N-methylpicolinamide], for which the inhibition at 1 µM at kinase domain of PDGFRβ is 7%; on kinase domain of cKIT, 0%; in assay [1], 55%.

For the molecule `CNC(=O)c1cc(Oc2ccc3nc(N[C@@H]4CCCN(C(C)=O)C4)sc3c2)ccn1` [Example 302, (R)-4-(2-(1-acetylpiperidin-3-ylamino)benzo[d]thiazol-6-yloxy)-N-methylpicolinamide], the inhibition at 1 µM at kinase domain of PDGFRβ was 0%; on kinase domain of cKIT it was 20%; in assay [1], 68%.

Turning to `CNC(=O)c1cc(Oc2ccc3nc(N[C@@H]4CCN(C(C)=O)C4)sc3c2)ccn1` [Example 303, (R)-4-(2-(1-acetylpyrrolidin-3-ylamino)benzo[d]thiazol-6-yloxy)-N-methylpicolinamide], the inhibition at 1 µM on kinase domain of PDGFRβ stood at 12%; at kinase domain of cKIT it was 24%; in assay [1], 74%.

Consider `CNC(=O)c1cc(Oc2ccc3nc(N[C@H]4CCN(C(C)=O)C4)sc3c2)ccn1` [Example 305, (S)-4-(2-(1-acetylpyrrolidin-3-ylamino)benzo[d]thiazol-6-yloxy)-N-methylpicolinamide], for which the inhibition at 1 µM on kinase domain of PDGFRβ amounted to 7%; on kinase domain of cKIT it was 15%; in assay [1], 87%.

As to `CNC(=O)c1cc(Oc2ccc3nc(NC4CCN(C(C)=O)CC4)sc3c2)ccn1` [Example 307, 4-(2-(1-acetylpiperidin-4-ylamino)benzo[d]thiazol-6-yloxy)-N-methylpicolinamide], the inhibition at 1 µM on kinase domain of PDGFRβ was determined as 6%; at kinase domain of cKIT, 15%; in assay [1], 90%.

With `CNC(=O)c1cc(Oc2ccc3nc(N[C@H]4CCCC[C@H]4NC(=O)[C@H]4CCCO4)sc3c2)ccn1` [Example 309, N-methyl-4-(2-((1S,2R)-2-((R)-tetrahydrofuran-2-carboxamido)cyclohexylamino)benzo[d]thiazol-6-yloxy)picolinamide], the inhibition at 1 µM on kinase domain of PDGFRβ is 13%; on kinase domain of cKIT, 6%; in assay [1], 74%.

For the molecule `CNC(=O)c1cc(Oc2ccc3nc(N[C@H]4CCCC[C@H]4NC(=O)C(C)C)sc3c2)ccn1` [Example 310, 4-(2-((1S,2R)-2-isobutyramidocyclohexyl-amino)benzo[d]thiazol-6-yloxy)-N-methylpicolinamide], the inhibition at 1 µM at kinase domain of PDGFRβ worked out at 13%; at kinase domain of cKIT, 13%; in assay [1] it was 15%.

Take `CNC(=O)c1cc(Oc2ccc3nc(N[C@H]4CCCC[C@H]4NC(=O)CC(C)C)sc3c2)ccn1` [Example 311, N-methyl-4-(2-((1S,2R)-2-(3-methylbutyanamido)cyclo-hexylamino)benzo[d]thiazol-6-yloxy)picolinamide]: the inhibition at 1 µM was found to be 88% at kinase domain of PDGFRβ, 22% at kinase domain of cKIT and 93% in assay [1].

With `CNC(=O)c1cc(Oc2ccc3nc(N[C@H]4CCCC[C@H]4NC(=O)c4ccccc4)sc3c2)ccn1` [Example 312, 4-(2-((1S,2R)-2-benzamidocyclohexylamino)benzo[d]thiazol-6-yloxy)-N-methylpicolinamide], the inhibition at 1 µM at kinase domain of PDGFRβ was 14%; on kinase domain of cKIT it was 0%; in assay [1], 76%.

`CNC(=O)c1cc(Oc2ccc3nc(N[C@H]4CCCC[C@H]4NC(=O)[C@@H]4CCCN4C)sc3c2)ccn1` [Example 313, N-methyl-4-(2-((1S,2R)-2-((S)-1-methylpyrrolidine-2-carboxamido)cyclohexylamino)benzo[d]thiazol-6-yloxy)picolinamide]: the values for the inhibition at 1 µM (on kinase domain of PDGFRβ; on kinase domain of cKIT; in assay [1]) were 2%, 23% and 52%, respectively.

Take `CNC(=O)c1cc(Oc2ccc3nc(N[C@@H]4CCCC[C@H]4NC(=O)C(C)C)sc3c2)ccn1` [Example 327, 4-(2-((1R,2R)-2-isobutyramidocyclohexyl-amino)benzo[d]thiazol-6-yloxy)-N-methylpicolinamide]: the inhibition at 1 µM on kinase domain of PDGFRβ came to 0%; at kinase domain of cKIT, 6%; in assay [1] it was 47%.

On to `CNC(=O)c1cc(Oc2ccc3nc(N[C@H]4CCCNC4)sc3c2)ccn1` [Example 332, (S)-N-methyl-4-(2-(piperidin-3-ylamino)benzo[d]thiazol-6-yloxy)picolinamide], for which the inhibition at 1 µM was 10% on kinase domain of PDGFRβ, 38% on kinase domain of cKIT and 48% in assay [1].

As to `CNC(=O)c1cc(Oc2ccc3nc(N[C@H]4CCCN(C(=O)NC(C)C)C4)sc3c2)ccn1` [Example 333, (S)-4-(2-(1-(isopropylcarbamoyl)piper-idin-3-ylamino)benzo[d]thiazol-6-yloxy)-N-methylpicolinamide], the inhibition at 1 µM worked out at 6% on kinase domain of PDGFRβ, 21% at kinase domain of cKIT and 86% in assay [1].

In the case of `Cn1cc(-c2cc(Oc3ccc4nc(NCCC5CCOCC5)sc4c3)ccn2)cn1` [Example 361, 6-(2-(1-methyl-1H-pyrazol-4-yl)pyridin-4-yloxy)-N-(2-(tetrahydro-2H-pyran-4-yl)ethyl)benzo[d]thiazol-2-amine], the results for the inhibition at 1 µM (on kinase domain of PDGFRβ; at kinase domain of cKIT; in assay [1]) were 75%, 100% and 100%, respectively.

`Cn1cc(-c2cc(Oc3ccc4nc(N[C@@H]5CCCc6ccccc65)sc4c3)ccn2)cn1` [Example 363, (R)-6-(2-(1-methyl-1H-pyrazol-4-yl)pyridin-4-yloxy)-N-(1,2,3,4-tetrahydronaphthalen-1-yl)benzo[d]thiazol-2-amine]: the inhibition at 1 µM on kinase domain of PDGFRβ turned out to be 99%; on kinase domain of cKIT, 100%; in assay [1], 100%.
